pKi: −log10 of the molar value.
Legend:
Sulfotransferase 1A1 = Sulfotransferase 1A1 (Homo sapiens, UniProt P50225); assay: Amoxapine and Protriptyline Inhibition Assay; conditions: pH 7.5; 2 °C
Method: (§1) Sulfation of PnP was monitored optically at λ = 415 nm (ε415 = 10.6 mM-1 cm-1 at pH 7.5 [Whittemore et al., Biochemistry, 24:2477-2482).

Sulfotransferase 2A1 = target: T1, Sulfotransferase 2A1 (Homo sapiens, UniProt Q06520); assay: Amoxapine and Protriptyline Inhibition Assay; conditions: pH 7.5; 2 °C
T1 sequence (Q06520 whole entry): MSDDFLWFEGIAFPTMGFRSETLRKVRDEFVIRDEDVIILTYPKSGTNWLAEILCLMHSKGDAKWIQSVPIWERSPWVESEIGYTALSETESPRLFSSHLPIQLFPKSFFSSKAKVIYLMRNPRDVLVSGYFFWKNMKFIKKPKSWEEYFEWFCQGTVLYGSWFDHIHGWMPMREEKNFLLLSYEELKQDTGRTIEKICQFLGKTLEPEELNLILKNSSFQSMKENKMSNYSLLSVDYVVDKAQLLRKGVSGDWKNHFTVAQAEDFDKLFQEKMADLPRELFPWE
Method: as §1

Chain of Sulfotransferase 1A1 (P50225 whole entry): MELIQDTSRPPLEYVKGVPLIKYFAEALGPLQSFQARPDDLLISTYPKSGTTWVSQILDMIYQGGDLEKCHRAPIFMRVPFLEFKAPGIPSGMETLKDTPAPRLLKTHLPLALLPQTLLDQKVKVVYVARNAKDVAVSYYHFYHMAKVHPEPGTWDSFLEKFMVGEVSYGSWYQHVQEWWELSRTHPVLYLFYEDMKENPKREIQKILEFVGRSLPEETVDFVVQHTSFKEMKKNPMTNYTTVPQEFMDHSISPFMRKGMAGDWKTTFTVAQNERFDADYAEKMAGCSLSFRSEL

| Compound | pKi (Sulfotransferase 1A1) | pKi (Sulfotransferase 2A1) |
| --- | --- | --- |
| Clc1ccc2c(c1)C(N1CCNCC1)=Nc1ccccc1O2 | 4.46 | 3.90 |
| CNCCCC1c2ccccc2C=Cc2ccccc21 [3-(5H-dibenzo[a,d][7]annulen-5-yl)-N-methylpropan-1-amine] | 4.26 | 4.12 |

From BindingDB's records for doi:10.1074/jbc.M113.510974 (Albert Einstein College of Medicine, 2013)
